Test results reported in patent publication US11952349B2, “Anti-cancer nuclear hormone receptor-targeting compounds” (Nuvation Bio Inc., priority 2019, dated 2024).
Read-outs that look alike come from different tables or passages of the source.

What was measured:
Human recombinant PARP2 = Human recombinant PARP2 (Homo sapiens, UniProt Q9UGN5); assay: RBC HotSpot PARP2 assay (radioisotope-based filter binding); type: biochemical
Description: The following methods are for evaluating the in vitro biology properties of the test articles. • a. RBC HotSpot Poly(ADP-ribose) Polymerases 1 (PARP1) and Poly(ADP-ribose) Polymerases 2 (PARP2) Assays: The assay was conducted at Reaction Biology Corporation (RBC; Malvern, PA). The assay principle is radioisotope-based filter binding assay where incorporation of radioisotope-labeled NAD^+ into the substrate captured on filter is detected after washout free NAD^+. Data were analyzed using Excel and GraphPad Prism software for IC50 curve fits. Each assay was conducted with PJ34 as a positive control. PARP1 assay: Human recombinant PARP1 at a final concentration of 2.5 nM was combined with histone H4 (20 μM) and test articles at various concentrations in reaction buffer (50 mM Tris-HCL, pH 8.0, 50 mM NaCl, 10 mM MgCl2, 1 mM DTT, 1% DMSO, and 20 μg/mL activated DNA). The solution was inoculated for 20 min at room temperature and the reaction initiated by adding [adenylate-^32P]-Nicotinamide Adenine Dinucleotide, ^32P-NAD^+ at a final concentration of 10 μM. After incubation for 2 hrs at room temperature, the reaction mixture was filtered and washed with 0.75% phosphoric acid for radioactivity detection. • ii. PARP2 assay: Human recombinant PARP2 at a final concentration of 2.5 nM was combined with histone H3 (20 μM) and test articles at various concentrations in reaction buffer (50 mM Tris-HCL, pH 8.0, 50 mM NaCl, 10 mM MgCl2, 1 mM DTT, 1% DMSO, and 20 μg/mL activated DNA). The solution was inoculated for 20 min at room temperature and the reaction was initiated by adding [adenylate-^32P]-Nicotinamide Adenine Dinucleotide, ^32P-NAD^+ at a final concentration of 10 μM. After incubation for 2 hrs at room temperature, the reaction mixture was filtered and washed with 0.75% phosphoric acid for radioactivity detection. • b. AR binding assay: AR in LNCaP cytosol was used for determining the binding affinity of test articles and the reference compound—progesterone (Sigma, Cat: E2785, St. Louis, MO). IC50 s were determined using 8 concentrations/compound. Cytosol is plated at 200 μg/well (100 μL) into a 96-well conical polypropylene plate (Agilent, Cat: 5042-1385, Santa Clara, CA) and mixed with 3 μL of test compound. After adding 100 μL of ^3H-methyltrienolone (PerkinElmer, Cat: NET590250UC, San Jose, CA), the plate was sealed and shaken at 300 rpm at 4° C. for 24 hours. Post incubation, 100 μL of radioligand adsorption buffer containing 10 mM Tris-HCl, pH 7.4; 1.5 mM EDTA; 1 mM DTT; 0.25% charcoal; 0.0025% dextran was added to individual wells. Plate was shaken for 15 min at 4° C. followed by centrifugation at 3000 rpm for 30 min at 4° C. 150 μL of supernatant is transferred into scint-tube (PerkinElmer, Cat: 6000192) and mixed with 2 mL of Ultima Gold Cocktail (PerkinElmer, Cat: 6013329). Radioactivity is counted using a TriCarb 2910 TR scintillation counter (PerkinElmer). Inhibition of the radioactivity by test articles was calculated using the equation below: % Inhibition=(1−(Assay well−Average_LC)/(Average_HC−Average_LC))×100%. • IC50 values (Table 6) were calculated and graphed using the model “log(inhibitor) vs. response—Variable slope” included in GraphPad Prism 5 (San Diego, CA). The Ki values were further calculated using the equation below where [L] is the radioligand concentration (1 nM) used in this study. Kd value was 0.332 nM. Ki=IC50/(1+[L]/Kd) • c. AR transactivation: Human AR cloned into a CMV vector backbone is used for the transactivation study. HEK-293 cells are plated at 80,000 cells per well of a 24 well plate in DME+5% csFBS. Twenty four hours later, the cells are transfected using Lipofectamine (Invitrogen, Carlsbad, CA) with 0.25 μg GRE-LUC, 0.01 μg CMV-LUC (renilla luciferase) and 25 ng of the AR in OPTIMEM medium. The cells are treated 24 hrs after transfection with various ligands (10^−12 to 10^−5 M final concentrations) and luciferase assay performed 48 hours after transfection. […]

[1] = target: T1, full-length androgen receptor (Homo sapiens, UniProt P10275); assay: AR antagonism assay (HEK293, testosterone 1 nM, Steady-glo); type: cell-based
T1 construct: HEK293 cells stably expressing the full-length androgen receptor; expressed in transfected cells
T1 sequence (P10275 1-920): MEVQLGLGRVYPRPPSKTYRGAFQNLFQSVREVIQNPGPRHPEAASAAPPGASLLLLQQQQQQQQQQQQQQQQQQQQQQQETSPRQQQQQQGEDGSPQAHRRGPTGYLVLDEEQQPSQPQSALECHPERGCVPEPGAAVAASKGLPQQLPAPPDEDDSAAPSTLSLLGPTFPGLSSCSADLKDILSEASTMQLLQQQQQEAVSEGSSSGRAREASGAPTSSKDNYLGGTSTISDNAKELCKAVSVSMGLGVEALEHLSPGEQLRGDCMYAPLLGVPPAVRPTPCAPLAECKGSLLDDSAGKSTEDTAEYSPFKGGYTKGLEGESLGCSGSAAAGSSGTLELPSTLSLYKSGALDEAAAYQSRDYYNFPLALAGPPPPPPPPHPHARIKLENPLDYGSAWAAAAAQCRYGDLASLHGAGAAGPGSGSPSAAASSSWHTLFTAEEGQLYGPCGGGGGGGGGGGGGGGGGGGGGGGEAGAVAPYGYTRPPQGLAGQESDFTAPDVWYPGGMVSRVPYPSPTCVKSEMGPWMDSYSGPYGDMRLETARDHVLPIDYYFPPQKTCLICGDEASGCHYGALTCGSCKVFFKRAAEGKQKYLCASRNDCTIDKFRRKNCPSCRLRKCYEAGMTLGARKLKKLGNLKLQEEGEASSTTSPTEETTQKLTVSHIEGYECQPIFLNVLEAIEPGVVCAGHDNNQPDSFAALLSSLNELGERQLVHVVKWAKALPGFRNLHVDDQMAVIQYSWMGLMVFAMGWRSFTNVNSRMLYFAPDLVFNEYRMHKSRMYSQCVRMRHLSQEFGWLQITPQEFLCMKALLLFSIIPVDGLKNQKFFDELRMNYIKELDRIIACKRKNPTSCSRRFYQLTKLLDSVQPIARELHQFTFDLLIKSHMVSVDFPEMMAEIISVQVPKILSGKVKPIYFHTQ
Description: AR antagonism assay: To evaluate AR antagonist activity, test compound was added to the assay plate (top dose 10 μM, 3 fold serial dilution, 10 point dose response). HEK293 cells stably expressing the full-length androgen receptor were seeded at a density of 20000 cells/well in the assay plate. The assay plate was then incubated at room temperature for 10 minutes and at 37° C., 5% CO2 for 20 minutes. Testosterone was added to the assay plate at 1 nM final concentration and the assay plate was incubated at 37° C., 5% CO2 for 20 h. After the incubation period, Steady-glo was added to the assay plate and mixed at room temperature for 20 minutes on an orbital shaker, before reading out on the EnVision plate reader.

[2] = Table 8, testosterone 1 nM, read-out: AR antagonism
[3] = Table 7, testosterone 1 nM, read-out: AR antagonism

Sequence of Human recombinant PARP2 (Q9UGN5 whole entry): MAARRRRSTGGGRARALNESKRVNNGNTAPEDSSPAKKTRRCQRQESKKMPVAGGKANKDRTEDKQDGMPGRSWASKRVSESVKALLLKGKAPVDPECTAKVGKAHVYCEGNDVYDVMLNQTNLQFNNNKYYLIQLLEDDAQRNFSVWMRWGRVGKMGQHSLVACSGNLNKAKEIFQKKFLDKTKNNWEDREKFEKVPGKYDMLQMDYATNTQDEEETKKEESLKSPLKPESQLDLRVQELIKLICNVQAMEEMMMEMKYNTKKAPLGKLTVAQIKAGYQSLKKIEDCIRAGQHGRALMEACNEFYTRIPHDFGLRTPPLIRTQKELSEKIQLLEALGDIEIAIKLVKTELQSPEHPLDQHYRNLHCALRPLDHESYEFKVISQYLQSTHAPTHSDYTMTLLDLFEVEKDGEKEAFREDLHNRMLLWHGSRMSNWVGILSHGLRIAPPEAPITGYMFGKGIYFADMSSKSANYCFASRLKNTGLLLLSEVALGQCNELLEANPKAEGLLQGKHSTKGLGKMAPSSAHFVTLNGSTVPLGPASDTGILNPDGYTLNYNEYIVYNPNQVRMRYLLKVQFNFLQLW

SMILES | IC50 (Human recombinant PARP2; Table 9, read-out: PARP2) [nM] | IC50 [1, 2] [nM] | IC50 [1, 3] [nM] | IC50 (Human recombinant PARP2; Table 5, in vitro results, read-out: PARP2 IC50) [nM] | IC50 [1] [nM]
CC#C[C@]1(O)CC[C@H]2[C@@H]3CCC4=CC(=O)CCC4=C3[C@@H](c3ccc(N(C)CCCCCC(=O)NCCOCCOCC(=O)N4CCN(C(=O)c5cc(Cc6n[nH]c(=O)c7ccccc67)ccc5F)CC4)cc3)C[C@@]21C [Compound 1429, N-(2-(2-(2-(4-(2-fluoro-5-((4-oxo-3,4-dihydrophthalazin-1-yl)methyl)benzoyl)piperazin-1-yl)-2-oxoethoxy)ethoxy)ethyl)-6-((4-((8S,11R,13S,14S,17S)-17-hydroxy-13-methyl-3-oxo-17-(prop-1-ynyl)-2,3,6,7,8,11,12,13,14,15,16,17-dodecahydro-1H-cyclopenta[a]phenanthren-11-yl)phenyl)(methyl)amino)hexanamide] | < 1 | > 10000 | – | – | –
CC(=O)O[C@]1(C(C)=O)CC[C@H]2[C@@H]3CCC4=CC(=O)CCC4=C3[C@@H](c3ccc(N(C)CCCCCC(=O)NCCOCCOCC(=O)N4CCN(C(=O)c5cc(Cc6n[nH]c(=O)c7ccccc67)ccc5F)CC4)cc3)C[C@@]21C [Compound 1384, (8S,11R,13S,14S,17R)-17-acetyl-11-(4-((6-(2-(2-(2-(4-(2-fluoro-5-((4-oxo-3,4-dihydrophthalazin-1-yl)methyl)benzoyl)piperazin-1-yl)-2-oxoethoxy)ethoxy)ethylamino)-6-oxohexyl)(methyl)amino)phenyl)-13-methyl-3-oxo-2,3,6,7,8,11,12,13,14,15,16,17-dodecahydro-1H-cyclopenta[a]phenanthren-17-yl acetate] | < 1 | > 10000 | – | – | –
C[C@]12Cc3cn[nH]c3C[C@@H]1CC[C@@H]1[C@@H]2CC[C@]2(C)[C@@H](OCCCCCC(=O)N3CCN(C(=O)c4cc(Cc5n[nH]c(=O)c6ccccc56)ccc4F)CC3)CC[C@@H]12 [Compound 1394, 4-(3-(4-(6-(((1S,3aS,3bR,5aS,10aS,10bS,12aS)-10a,12a-dimethyl-1,2,3,3a,3b,4,5,5a,6,7,10,10a,10b,11,12,12a-hexadecahydrocyclopenta[5,6]naphtho[1,2-f]indazol-1-yl)oxy)hexanoyl)piperazine-1-carbonyl)-4-fluorobenzyl)phthalazin-1(2H)-one] | 1 to 10 | – | 1000 to 10000 | – | –
CC#C[C@]1(O)CC[C@H]2[C@@H]3CCC4=CC(=O)CCC4=C3[C@@H](c3ccc(N(C)CCCCCC(=O)N4CCN(C(=O)c5cc(Cc6n[nH]c(=O)c7ccccc67)ccc5F)CC4)cc3)C[C@@]21C [Compound 135, 4-(4-fluoro-3-(4-(6-((4-((8S,11R,13S,14S,17S)-17-hydroxy-13-methyl-3-oxo-17-(prop-1-ynyl)-2,3,6,7,8,11,12,13,14,15,16,17-dodecahydro-1H-cyclopenta[a]phenanthren-11-yl)phenyl)(methyl)amino)hexanoyl)piperazine-1-carbonyl)benzyl)phthalazin-1(2H)-one] | < 1 | 100 to 1000 | – | – | –
Cn1ncnc1C1c2n[nH]c(=O)c3cc(F)cc(c23)N[C@@H]1c1ccc(NC(=O)CCCCCO[C@@H]2CC[C@H]3[C@@H]4CC[C@H]5CCCC[C@]5(C)[C@H]4CC[C@]23C)cc1 (stereo partly drawn) [Compound 1128, 6-((5R,8R,9S,10S,13S,14S,17R)-10,13-dimethylhexadecahydro-1H-cyclopenta[a]phenanthren-17-yloxy)-N-(4-((8S)-5-fluoro-9-(1-methyl-1H-1,2,4-triazol-5-yl)-3-oxo-3,7,8,9-tetrahydro-2H-pyrido[4,3,2-de]phthalazin-8-yl)phenyl)hexanamide] | – | – | 1000 to 10000 | 14 | –
C[C@@]12CCC(=O)C[C@H]1CC[C@H]1[C@H]2CC[C@]2(C)[C@@H]1CC[C@H]2OCCCCCCNC(=O)c1cc(Cc2n[nH]c(=O)c3ccccc23)ccc1F (stereo in doubt) [Compound 1426, N-(6-((5R,8S,9R,10R,13R,14R,17R)-10,13-dimethyl-3-oxohexadecahydro-1H-cyclopenta[a]phenanthren-17-yloxy)hexyl)-2-fluoro-5-((4-oxo-3,4-dihydrophthalazin-1-yl)methyl)benzamide] | 1 to 10 | – | – | – | 100 to 1000
C[C@]12C[C@H](CCCCCC(=O)N3CCN(C(=O)c4cc(Cc5n[nH]c(=O)c6ccccc56)ccc4F)CC3)C3=C4CCC(=O)C=C4CC[C@H]3[C@@H]1CCC2O (stereo partly drawn) [Compound 138, 4-(4-fluoro-3-(4-(6-((8S,11S,13S,14S)-17-hydroxy-13-methyl-3-oxo-2,3,6,7,8,11,12,13,14,15,16,17-dodecahydro-1H-cyclopenta[a]phenanthren-11-yl)hexanoyl)piperazine-1-carbonyl)benzyl)phthalazin-1(2H)-one] | < 1 | – | – | – | 100 to 1000
C[C@]12CC[C@H]3[C@@H](CCC4=CC(=O)CC[C@@]43C)[C@@H]1CC[C@@H]2C(=O)COCCCCCC(=O)N1CCN(C(=O)c2cc(Cc3n[nH]c(=O)c4ccccc34)ccc2F)CC1 [Compound 1386, 4-(3-(4-(6-(2-((8S,9S,10R,13S,14S,17S)-10,13-dimethyl-3-oxo-2,3,6,7,8,9,10,11,12,13,14,15,16,17-tetradecahydro-1H-cyclopenta[a]phenanthren-17-yl)-2-oxoethoxy)hexanoyl)piperazine-1-carbonyl)-4-fluorobenzyl)phthalazin-1(2H)-one] | < 1 | 100 to 1000 | – | – | –
